Columns and labels:
Assay type in all cases: cell-based, human
[1] = tested on: BAF47 within the BAF complex; experiment: anti-Brg immunoprecipitation of BAF complexes followed by anti-BAF47 western blot in Aska cells; conditions: 48 hours at 16 μM, relative to DMSO control
Method: Briefly, naïve, unmodified Aska SS cells were treated for 48 hours at 16 μM concentration of all 5 positive hit compounds (as well as negative compounds for controls). The western blot reflects IPs of BAF complexes highlighting increased incorporation/stability of BAF47 relative to DMSO control. The bar graph highlights levels of BAF47 (measured via western blot quantitative densitometry) over n=3 experiments for each compound, including testing against three other negative compounds.
(§1) All cell types were grown under standard conditions and lysed and homogenized in Buffer A (10 mM Hepes (pH 7.6), 25 mM KCl, 1 mM EDTA, 10% glycerol, 1 mM DTT, and protease inhibitors (complete mini tablets (Roche) supplemented with 1 mM PMSF) on ice. Nuclei were sedimented by centrifugation (1,000×g), resuspended in Buffer C (10 mM Hepes (pH 7.6), 3 mM MgCl2, 100 mM KCl, 0.1 mM EDTA, 10% glycerol, 1 mM DTT, and protease inhibitors), and lysed by the addition of ammonium sulfate to a final concentration of 0.3 M. Soluble nuclear proteins were separated by the insoluble chromatin fraction by ultracentrifugation (100,000×g) and precipitated with […] ammonium sulfate for 20 min on ice. Protein precipitate was isolated by ultracentrifugation (100,000×g), and resuspended in IP buffer (150 mM NaCl, 50 mM Tris-HCl (pH 8.0), 1% NonidetP-40, 0.5% deoxycholate, 1 mM DTT, 1 mM PMSF with protease inhibitors) for immunoprecipitation analyses or HEMG-0 buffer (25 mM HEPES pH 7.9, 0.1 mM EDTA, 12.5 mM MgCl2, 100 mM KCl, freshly supplemented with DTT and PMSF) for glycerol gradient analyses.
(§2) Nuclear extracts were resuspended in IP buffer and precleared for 30 minutes at 4 degrees C. using Protein G/A Sepharose beads (GE Healthcare). The protein concentration was determined using Bradford assay and adjusted to a final volume of 250 μL at a final concentration of 1.5 mg/mL with IP buffer. Each IP was incubated with 2.5 μg of antibody overnight at 4° C. and then for 2 h with 20 μL Protein A/G Sepharose beads. The beads were washed four times at room temperature with 1 mL IP buffer and resuspended in 20 μL 2× gel loading buffer (4×LDS Buffer; Invitrogen)+DTT.

[2] = tested on: BAF47 within the BAF complex; experiment: BAF155 immunoprecipitation and western blot for BAF47 in Aska cells; conditions: for BAF47 stabilization within the BAF complex (BAF155 immunoprecipitation): Aska cells, twenty-four hours, single 30 micromolar dose
Method: These include resynthesized positive hits for Compounds 5-6.
FIG. 8 comprises a series of images and graph illustrating the activity of Compound 5 in Yamato cells. Briefly, Yamato cells were treated with 30 μM compound for 24 hours over n=5 replicates. The graph depicts levels of BAF47 in DMSO treated vs Compound 5-treated cells.
as §1, §2

[3] = tested on: Aska synovial sarcoma cells; experiment: Synovial sarcoma cell viability by CellTiter Glo luminescence
Method: FIGS. 15A-15C comprise a set of graphs illustrating the finding that compounds of the invention reduce synovial sarcoma cell viability as measured by CellTiter Glog luminescence.
The effect of compounds of the invention on synovial sarcoma cell viability was assessed as measured by CellTiter Glo® luminescence (FIGS. 15A-15B). Briefly, cells were plated under standard conditions and allowed to grow to 75% confluence prior to treatment with compounds. CellTiterGlo reagent was used to measure cell viability.

BAF47 = experiment: Time and dose study of Compound 11 on BAF47 stability in Aska cells; conditions: 0-30 micromolar, 24, 48 and 72 hours
Method: FIG. 9 comprises a set of bar graphs illustrating the effects of Compound 11 (illustrated), the lead compound lacking the hydroxyl group, as a function of time and dose in Aska cells.
Compound 11 was added at doses from 0-30 micromolar, and the results monitored at 24, 48, and 72 hours after treatment.

C[C@@H]1CN([C@H](C)CO)C(=O)c2cc(NC(=O)NC3CCCCC3)ccc2O[C@@H]1CN(C)S(=O)(=O)c1cccs1 [Compound 3, N-(((2S,3R)-8-(3-cyclohexylureido)-5-((R)-1-hydroxypropan-2-yl)-3-methyl-6-oxo-3,4,5,6-tetrahydro-2H-benzo[b][1,5]oxazocin-2-yl)methyl)-N-methylthiophene-2-sulfonamide]
BAF47 stabilization (anti-Brg IP, anti-BAF47 western blot) [1]: stabilized BAF47

C[C@@H]1CN([C@H](C)CO)C(=O)c2cccc(NC(=O)c3ccc(-c4nccs4)cc3)c2O[C@@H]1CN(C)Cc1ccc(C(=O)Nc2ccccc2N)cc1 [Compound 1, N-(2-aminophenyl)-4-(((((2S,3R)-5-((R)-1-hydroxypropan-2-yl)-3-methyl-6-oxo-10-(4-(thiazol-2-yl)benzamido)-3,4,5,6-tetrahydro-2H-benzo[b][1,5]oxazocin-2-yl)methyl)(methyl)amino)methyl)benzamide]
BAF47 stabilization (anti-Brg IP, anti-BAF47 western blot) [1]: stabilized BAF47

COc1ccc2c3c([nH]c2c1)[C@@H](CO)N(Cc1ccccc1F)CC31CCN(C(=O)C2CCC2)CC1 [Compound 5, (S)-cyclobutyl(2′-(2-fluorobenzyl)-1′-(hydroxymethyl)-7′-methoxy-1′,2′,3′,9′-tetrahydrospiro[piperidine-4,4′-pyrido[3,4-b]indol]-1-yl)methanone]
BAF47 stabilization (anti-Brg IP, anti-BAF47 western blot) [1]: stabilized BAF47 | BAF47 stabilization within the BAF complex (BAF155 immunoprecipitation) [2]: stabilized BAF47 within the BAF complex | BAF47 stabilization (western blot image, FIG. 8 lower panel) ([2]; Aska-SS cells upon treatment with Compound 5): stabilization of BAF47 | Cell viability (CellTiter Glo luminescence) [3]: resulted in cell toxicity

C[C@@H]1CCCCO[C@@H](CN(C)Cc2ccc(C(=O)Nc3ccccc3N)cc2)[C@H]2C[C@@H](CO)N(C2)C(=O)c2cc(N(C)C)ccc2O1 [Compound 8, N-(2-aminophenyl)-4-(((((13S,15R,5R,11R)-35-(dimethylamino)-15-(hydroxymethyl)-5-methyl-2-oxo-4,10-dioxa-1(1,3)-pyrrolidina-3(1,2)-benzenacycloundecaphane-11-yl)methyl)(methyl)amino)methyl)benzamide]
BAF47 stabilization (anti-Brg IP, anti-BAF47 western blot) [1]: stabilized BAF47

COc1ccc2c3c([nH]c2c1)CN(Cc1ccccc1F)CC31CCN(C(=O)C2CCC2)CC1 [Compound 11, cyclobutyl(2′-(2-fluorobenzyl)-7′-methoxy-1′,2′,3′,9′-tetrahydrospiro[piperidine-4,4′-pyrido[3,4-b]indol]-1-yl)methanone]
BAF47 stability as a function of time and dose (BAF47): increases BAF47 stability in dose-dependent manner | BAF47 stabilization within the BAF complex (BAF155 immunoprecipitation) [2]: stabilized BAF47 within the BAF complex

From patent US10752628B2, “Compounds and methods for treating synovial sarcomas” (THE BROAD INSTITUTE, INC., priority 2015, dated 2020)
